Results taken from patent US7312237B2, “Combination of epothilone analogs and chemotherapeutic agents for the treatment of prolilferative diseases” (Bristol-Myers Squibb Co., priority 2001, dated 2007).
Values joined by “and” are separate entries in the source; they are usually repeats but may differ in a detail not shown here. Identical values can stand only once. “Also recorded” adds a separate entry of the source.

Columns and labels:
[1] = tested on: Pat-7 human ovarian carcinoma; experiment: In vivo antitumor testing, Pat-7 in nude mice
Protocol: (§1) All tumor implants for efficacy testing were subcutaneous (sc).
(§2) The MTD was frequently equivalent to OD. When death occurs, the day of death was recorded.
(§3) And, Log cell kill=T−C÷(3.32×TVDT)
(§4) This tumor model was established from a tumor biopsy of an ovarian cancer patient (Pat-7), who was initially responsive to TAXOL® treatment but ultimately developed resistance to it following nine courses of monotherapy with TAXOL®. Prior to treatment with TAXOL®, Pat-7 also received numerous other chemotherapeutic agents including carboplatin, cytoxan, VP-16, ifosfamide and altretamine. Tumor biopsy was taken following development of TAXOL® resistance.

[2] = In vivo antitumor testing, Pat-7 in nude mice; conditions: nude, mouse, in vivo
Protocol: as §1, §2, §3, §4

[3] = In vivo antitumor testing, M5076 murine sarcoma; set-up: species or system mice; conditions: (C57Bl/6×DBA/2)F1 hybrid, mouse, in vivo, iv, Compound 1 IV, read-out: OD (optimal dose or MTD)
Protocol: (§5) The murine fibrosarcoma M5076 was also employed.
(§6) The human tumors were maintained in Balb/c nu/nu nude mice. M5076 was maintained in C57BL/6 mice. Tumors were propagated as subcutaneous transplants in the appropriate mouse strain using tumor fragments obtained from donor mice.
as §1, §2, §3

[4] = tested on: M5076 murine fibrosarcoma; experiment: In vivo antitumor testing, M5076 murine sarcoma; set-up: species or system mice
Protocol: as §5, §6, §1, §2, §3

[5] = tested on: panel of tumor cell lines; experiment: Oncology Diverse Cell Assay, panel of 21 cell lines; type: cell-based; conditions: 18 of the 21 cell lines tested
Protocol: Bar graphs, on the right, depict the IC50 values of the cell lines listed on the left hand column (top to bottom).
The in vitro cytotoxicity was assessed in tumor cells by a tetrazolium-based colorimetric assay which takes advantage of the metabolic conversion of MTS (3-(4,5-dimethylthiazol-2-yl)-5-(3-carboxymethoxyphenyl)-2-(4-sulphenyl)-2H-tetrazolium, inner salt) to a reduced form that absorbs light at 492 nm. Cells were seeded 24 hr prior to drug addition. Following a 72 hour incubation at 37° C. with serially diluted compound, MTS, in combination with the electron coupling agent phenazine methosulfate, was added to the cells. The incubation was continued for 3 hours, then the absorbancy of the medium at 492 nm was measured with a spectrophotometer to obtain the number of surviving cells relative to control populations. The results are expressed as median cytotoxic concentrations (IC50 values).

[6] = tested on: A2780 human ovarian carcinoma; experiment: In vivo antitumor testing, A2780 in nude mice
Protocol: as §1, §2, §3

[7] = In vivo antitumor testing, A2780 in nude mice; conditions: nude, mouse, in vivo, iv, Compound 1 IV, read-out: OD (optimal dose or MTD)
Protocol: as §1, §2, §3

[8] = In vivo antitumor testing, LS174T xenograft; set-up: species or system nude mice; conditions: nude, mouse, in vivo, iv; read-out: OD (optimal dose or MTD)
Protocol: as §1, §2, §3

[9] = tested on: LS174T human colon carcinoma; experiment: In vivo antitumor testing, LS174T xenograft; set-up: species or system nude mice; conditions: Expt. R578, IV q4dx3, OD 16 mg/kg
Protocol: as §1, §2, §3

[10] = Stability as a function of pH; type: physicochemical; conditions: neutral pH versus low pH
[11] = tested on: HCT116 human colon carcinoma; experiment: In vivo antitumor testing, HCT116 xenograft; set-up: species or system nude mice
Protocol: as §1, §2, §3

[12] = tested on: Pat-7 human ovarian carcinoma; experiment: In vivo antitumor testing, Pat-7 in nude rats; conditions: Expt. 15, nude rats, IV q8dx2, OD 3 mg/kg
Protocol: as §2, §3

[13] = In vivo antitumor testing, Pat-7 in nude rats; conditions: nude, rat, in vivo, iv; read-out: OD (optimal dose or MTD)
Protocol: as §2, §3

[14] = Expt. 89, IV q2dx5, OD 6.3 mg/kg
[15] = Expt. 115, IV q2dx5, OD 6.3 mg/kg
[16] = Expt. 115, IV q4dx3, OD 16 mg/kg
[17] = Expt. 52, IV q2dx5, OD 6.3 mg/kg
[18] = Expt. 52, IV q4dx3, OD 10 mg/kg
[19] = Expt. 52, IV q8dx2, OD 24 mg/kg
[20] = Expt. 52, PO q2dx5, OD 90 mg/kg

In the case of `C/C(=C\c1csc(C)n1)[C@@H]1C[C@@H]2O[C@]2(C)CCC[C@H](C)[C@H](O)[C@@H](C)C(=O)C(C)(C)[C@@H](O)CC(=O)N1` (relative stereo) [Compound 1, [1S-[1R*,3R*(E),7R*,10S*,11R*,12R*,16S*]]-7,11-dihydroxy-8,8,10,12,16-pentamethyl-3-[1-methyl-2-(2-methyl-4-thiazolyl)ethenyl]-4-aza-17-oxabicyclo[14.1.0] heptadecane-5,9-dione], the “OD (optimal dose or maximum tolerated dose, MTD)” value ([1]; Compound 1 IV, q2dx5) is reported as 6.3 mg/kg, the “OD (optimal dose or MTD)” value ([1]; Compound 1 PO, q2dx5) is reported as 80 mg/kg and the “LCK (gross log cell kill)” value ([1]; Expt. 8, IV q2dx5, OD 6.3 mg/kg) is reported as 4.5. For the same compound, the “LCK (gross log cell kill)” value ([1]; Expt. 8, PO q2dx5, OD 60 mg/kg) was 3.1, the “LCK (gross log cell kill)” value ([1]; Expt. 9, PO q2dx5, OD 80 mg/kg) was 2.5 and the “LCK (gross log cell kill)” value ([1]; Expt. 12, IV q2dx5, OD 6.3 mg/kg) was 2.1. The “LCK (gross log cell kill)” value ([1]; Expt. 12, IV q4dx3, OD 15 mg/kg) was 1.7, the “LCK (gross log cell kill)” value ([1]; Expt. R403, IV q2dx5, OD 4.8 mg/kg) was 2.1 and the MTD ([2]; iv, Compound 1 IV, q2dx5, read-out: OD (optimal dose or maximum tolerated dose, MTD)) was 4.8 mg/kg. For the same compound, the MTD ([2]; iv, Compound 1 IV, q4dx3, read-out: OD (optimal dose or MTD)) was 15 mg/kg, the MTD ([2]; po, Compound 1 PO, q2dx5, read-out: OD (optimal dose or MTD)) was 60 mg/kg and the MTD ([3]; q2dx5) was 8.4 mg/kg. For the same compound, the MTD ([3]; q4dx3) was 24 mg/kg, the “LCK (gross log cell kill)” value ([4]; Expt. 159, IV q2dx5, OD 8.4 mg/kg) was 0.5 and the “LCK (gross log cell kill)” value ([4]; Expt. 162, IV q2dx5, OD 8.4 mg/kg) was 0.7. For the same compound, the “LCK (gross log cell kill)” value ([4]; Expt. 172, IV q4dx3, OD 24 mg/kg) was 1.0, the IC50 [5] was 1.4 to 6 nM and the “OD (optimal dose or MTD)” value ([6]; Compound 1 IV, q2dx5) was 4.8 mg/kg. The “LCK (gross log cell kill)” value [6, 14] was over 4.8, the cures/total [6, 14] was 3/7 and the “LCK (gross log cell kill)” value ([6]; Expt. 92, IV q2dx5, OD 6.3 mg/kg) was 2. For the same compound, the “LCK (gross log cell kill)” value ([6]; Expt. 111, IV q2dx5, OD 4.8 mg/kg) was 3.1, the “LCK (gross log cell kill)” value [6, 15] was 2.4 and the cures/total [6, 15] was 0/8. For the same compound, the “LCK (gross log cell kill)” value [6, 16] was over 5.3, the cures/total [6, 16] was 3/7 and the MTD ([7]; q2dx5) was 6.3 mg/kg. The MTD ([7]; q4dx3) was 16 mg/kg, the MTD [8] was 16 mg/kg and the “LCK (gross log cell kill)” value [9] was 2.3. For the same compound, the “stability versus pH” value [10] was “significantly more stable at neutral pH than at low pH”, the “LCK (gross log cell kill)” value [11, 17] was over 6.3 and the cures/total [11, 17] was 4 of 8 and 4/8. For the same compound, the “LCK (gross log cell kill)” value [11, 18] was over 6.3, the cures/total [11, 18] was 5 of 8 and 5/8 and the “LCK (gross log cell kill)” value [11, 19] was over 6.3. The cures/total [11, 19] was 8 of 8 and 8/8, the “LCK (gross log cell kill)” value [11, 20] was over 6.3 and the cures/total [11, 20] was “seven of eight; also recorded: (7/8)”. The “LCK (gross log cell kill)” value [12] was over 5, the cures/total [12] was 4 of 6 and (4/6) and the MTD [13] was 3 mg/kg.
